Where two headings read alike, the source gives them in different places.
What was measured:
[1] = biological target: T1, Human recombinant PDE3A (hPDE3A) (Homo sapiens, UniProt Q14432); experiment: In vitro assay PDE3A (SPA, 3H-cAMP hydrolysis); assay type: biochemical; settings: for IC50: hPDE3B pIC50; for Emax: read-out: hPDE3B Emax, read-out: Emax;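 on Emax: the method names PDE3A and the table heading PDE3B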
T1 construct: purchased Scottish Biomedical; host or cells: Sf9 insect cells
Method in brief: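 Radiometric SPA measuring [3H]-cAMP hydrolysis (0.4 μM cAMP, 2.4 μCi/ml) over 60 min at room temperature, in Tris pH 7.8 buffer with MgCl2 and EGTA, 1% DMSO. Enzyme: recombinant human brain PDE3A expressed in Sf9 cells, used as partially purified lysate. Counts compared with enzyme-free blanks and vehicle controls.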

[2] = biological target: T2, Human recombinant PDE10A (hPDE10A) (Homo sapiens, UniProt Q9Y233); experiment: In vitro assay PDE10A, human clone (SPA, 3H-cAMP hydrolysis); assay type: biochemical
T2 construct: His tag (inferred from metal chelate purification); made in house; host or cells: Sf9 insect cells (baculovirus)
T2 sequence (Q9Y233 267-1055): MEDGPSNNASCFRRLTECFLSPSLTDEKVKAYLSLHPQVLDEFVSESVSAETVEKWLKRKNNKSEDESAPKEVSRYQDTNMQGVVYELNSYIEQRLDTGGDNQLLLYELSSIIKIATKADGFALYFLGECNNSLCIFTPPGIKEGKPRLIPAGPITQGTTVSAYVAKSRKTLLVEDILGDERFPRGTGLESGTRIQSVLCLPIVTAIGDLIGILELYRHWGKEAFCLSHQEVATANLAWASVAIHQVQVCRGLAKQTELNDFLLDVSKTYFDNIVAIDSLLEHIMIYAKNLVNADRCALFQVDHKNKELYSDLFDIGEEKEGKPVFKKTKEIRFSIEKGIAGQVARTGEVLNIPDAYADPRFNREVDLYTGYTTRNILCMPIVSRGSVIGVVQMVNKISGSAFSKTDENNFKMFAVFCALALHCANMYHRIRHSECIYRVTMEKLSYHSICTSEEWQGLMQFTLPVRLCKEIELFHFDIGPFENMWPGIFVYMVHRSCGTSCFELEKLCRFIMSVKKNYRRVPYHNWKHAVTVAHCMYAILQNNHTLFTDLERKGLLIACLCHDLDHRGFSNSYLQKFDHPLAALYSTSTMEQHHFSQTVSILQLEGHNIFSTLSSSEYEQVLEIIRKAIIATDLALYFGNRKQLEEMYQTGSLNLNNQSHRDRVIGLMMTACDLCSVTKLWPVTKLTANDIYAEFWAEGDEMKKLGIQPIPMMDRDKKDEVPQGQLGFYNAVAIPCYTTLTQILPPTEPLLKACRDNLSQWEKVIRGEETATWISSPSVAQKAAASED
Method in brief: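 Hydrolysis of 3H-cAMP (60 nM cAMP, 0.008 μCi tracer) proceeded for 60 min at room temperature, with the product detected by SPA bead scintillation counting. The enzyme was hPDE10A from baculovirus-infected Sf9 cells in Tris pH 7.8 buffer with MgCl2 and EGTA, and compounds were at 1% DMSO final. Blanks lacked enzyme.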

[3] = biological target: T3, Human recombinant PDE2A (hPDE2A) (Homo sapiens, UniProt O00408); experiment: In vitro assay PDE2A (SPA, 3H-cGMP hydrolysis); assay type: biochemical; settings: for Emax: read-out: hPDE2A Emax
T3 construct: His tag (inferred from metal chelate purification); made in house; host or cells: Sf9 insect cells (baculovirus)
T3 sequence (O00408 whole entry): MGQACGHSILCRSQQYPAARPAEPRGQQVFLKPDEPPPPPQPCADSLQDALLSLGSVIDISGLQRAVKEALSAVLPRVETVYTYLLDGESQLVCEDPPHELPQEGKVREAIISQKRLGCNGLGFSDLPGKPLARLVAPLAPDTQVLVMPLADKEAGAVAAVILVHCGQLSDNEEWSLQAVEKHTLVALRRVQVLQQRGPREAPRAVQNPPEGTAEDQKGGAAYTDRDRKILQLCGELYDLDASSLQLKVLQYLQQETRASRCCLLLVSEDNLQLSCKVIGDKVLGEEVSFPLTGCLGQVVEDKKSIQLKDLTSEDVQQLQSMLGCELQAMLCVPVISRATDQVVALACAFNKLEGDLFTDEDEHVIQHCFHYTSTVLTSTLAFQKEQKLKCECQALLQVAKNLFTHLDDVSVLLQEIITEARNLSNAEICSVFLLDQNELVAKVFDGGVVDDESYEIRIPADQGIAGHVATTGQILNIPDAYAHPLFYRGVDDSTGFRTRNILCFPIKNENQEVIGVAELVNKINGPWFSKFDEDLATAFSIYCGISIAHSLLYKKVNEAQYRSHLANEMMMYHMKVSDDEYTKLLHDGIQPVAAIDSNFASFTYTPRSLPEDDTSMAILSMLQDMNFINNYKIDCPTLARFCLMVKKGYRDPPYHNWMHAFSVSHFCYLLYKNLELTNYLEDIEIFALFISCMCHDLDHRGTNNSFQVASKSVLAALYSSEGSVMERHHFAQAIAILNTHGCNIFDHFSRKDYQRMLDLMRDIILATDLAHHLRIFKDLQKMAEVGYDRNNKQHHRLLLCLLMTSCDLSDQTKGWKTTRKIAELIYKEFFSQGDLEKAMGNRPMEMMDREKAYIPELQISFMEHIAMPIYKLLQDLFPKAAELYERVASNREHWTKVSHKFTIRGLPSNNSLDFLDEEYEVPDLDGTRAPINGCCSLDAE

PDE2A = biological target: T4, PDE2A (Rattus norvegicus, UniProt Q01062); experiment: PDE2 occupancy by test compounds, ex-vivo autoradiography with [3H]B-17a; assay type: in vivo, Male Wistar rats; settings: for receptor occupancy at 10 mg/kg: route PO (oral), percentage receptor occupancy, ex-vivo autoradiography, striatum
T4 construct: Twenty μm-thick striatal sections were cut; from tissue; host or cells: rat brain, striatal sections
T4 sequence (Q01062 1-928): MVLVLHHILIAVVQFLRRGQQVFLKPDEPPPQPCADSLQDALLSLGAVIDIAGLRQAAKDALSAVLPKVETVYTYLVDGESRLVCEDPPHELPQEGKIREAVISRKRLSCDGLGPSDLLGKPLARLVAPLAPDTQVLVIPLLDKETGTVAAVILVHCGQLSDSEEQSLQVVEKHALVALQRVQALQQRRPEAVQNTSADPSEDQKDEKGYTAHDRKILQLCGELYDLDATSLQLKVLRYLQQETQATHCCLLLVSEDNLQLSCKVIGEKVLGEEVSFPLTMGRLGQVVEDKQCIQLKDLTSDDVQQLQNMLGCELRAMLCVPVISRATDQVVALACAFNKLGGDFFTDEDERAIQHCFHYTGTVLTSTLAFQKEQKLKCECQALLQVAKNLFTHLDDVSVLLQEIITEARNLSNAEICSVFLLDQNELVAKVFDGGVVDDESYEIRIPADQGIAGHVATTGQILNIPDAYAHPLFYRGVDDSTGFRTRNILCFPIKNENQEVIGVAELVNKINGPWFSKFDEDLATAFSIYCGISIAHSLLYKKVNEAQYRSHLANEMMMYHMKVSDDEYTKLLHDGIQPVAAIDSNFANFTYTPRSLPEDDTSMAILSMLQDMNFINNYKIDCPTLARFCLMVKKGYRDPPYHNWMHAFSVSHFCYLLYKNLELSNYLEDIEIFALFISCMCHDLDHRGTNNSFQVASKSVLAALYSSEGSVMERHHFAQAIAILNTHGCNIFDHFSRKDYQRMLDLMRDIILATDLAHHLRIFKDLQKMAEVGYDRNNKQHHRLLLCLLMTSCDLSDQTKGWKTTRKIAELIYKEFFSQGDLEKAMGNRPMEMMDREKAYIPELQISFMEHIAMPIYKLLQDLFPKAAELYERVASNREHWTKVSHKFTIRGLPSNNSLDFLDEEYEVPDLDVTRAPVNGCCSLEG

[4] = human clone (h), default, read-out: hPDE10A2 pIC50 (converted)
[5] = human recombinant PDE2A, 10 μM cGMP substrate, read-out: hPDE2A pIC50 (converted)
[6] = read-out: hPDE2A pIC50 (converted)
[7] = human clone (h), default, read-out: hPDE10A2 Emax
[8] = human clone by default (no (r) mark), read-out: hPDE10A2 or rPDE10A2 Emax
[9] = human clone by default (no (r) mark), read-out: hPDE10A2 or rPDE10A2 pIC50 (converted)

T1 sequence (Q14432 whole entry): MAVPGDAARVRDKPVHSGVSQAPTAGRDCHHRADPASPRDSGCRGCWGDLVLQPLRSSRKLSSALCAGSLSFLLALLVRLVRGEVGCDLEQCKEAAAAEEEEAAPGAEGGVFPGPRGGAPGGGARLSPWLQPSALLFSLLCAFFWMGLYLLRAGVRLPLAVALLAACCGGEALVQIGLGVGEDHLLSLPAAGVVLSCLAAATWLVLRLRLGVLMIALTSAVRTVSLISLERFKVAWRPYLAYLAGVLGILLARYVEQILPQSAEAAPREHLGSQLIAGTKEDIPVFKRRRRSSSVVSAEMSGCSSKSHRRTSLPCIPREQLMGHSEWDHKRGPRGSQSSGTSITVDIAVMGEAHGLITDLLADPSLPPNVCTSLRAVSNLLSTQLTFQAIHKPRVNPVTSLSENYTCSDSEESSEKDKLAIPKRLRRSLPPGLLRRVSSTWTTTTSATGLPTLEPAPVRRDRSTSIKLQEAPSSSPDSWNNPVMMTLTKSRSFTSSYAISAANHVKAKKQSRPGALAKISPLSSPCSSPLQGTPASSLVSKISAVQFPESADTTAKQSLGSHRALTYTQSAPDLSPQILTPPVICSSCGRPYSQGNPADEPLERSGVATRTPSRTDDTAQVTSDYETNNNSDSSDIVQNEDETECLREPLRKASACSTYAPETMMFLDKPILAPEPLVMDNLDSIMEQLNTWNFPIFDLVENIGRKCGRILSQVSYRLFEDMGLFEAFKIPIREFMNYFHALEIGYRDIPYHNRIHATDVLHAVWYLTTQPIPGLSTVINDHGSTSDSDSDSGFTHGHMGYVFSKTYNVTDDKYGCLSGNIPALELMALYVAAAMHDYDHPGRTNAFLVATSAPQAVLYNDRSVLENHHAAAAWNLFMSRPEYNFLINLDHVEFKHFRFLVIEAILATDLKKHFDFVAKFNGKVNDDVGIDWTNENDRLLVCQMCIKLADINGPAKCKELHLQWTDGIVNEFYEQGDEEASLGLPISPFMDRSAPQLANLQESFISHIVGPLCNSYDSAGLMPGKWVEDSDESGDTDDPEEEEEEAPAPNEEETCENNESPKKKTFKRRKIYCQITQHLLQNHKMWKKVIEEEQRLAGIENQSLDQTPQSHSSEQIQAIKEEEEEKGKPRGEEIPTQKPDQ

melting point	Structure (SMILES)	IC50 [3, 6]	IC50 ([1]; read-out: pIC50 (converted))	Emax [1]	Emax [3]	receptor occupancy at 10 mg/kg (PDE2A)	Emax [2, 8]	IC50 [2, 9]	further results
220.89 °C	Cn1ccc2c(F)c(C(=O)N3[C@H]4CC[C@H](c5cc(C(F)F)nc6ncnn56)[C@@H]3CC4)ccc21	–	–	–	–	–	–	–	–
145.73 °C	Cc1cc(C)cc(C(=O)N2CCC[C@](C)(c3cc(C(F)F)nc4ncnn34)C2)c1 (single isomer, unassigned) [Compound 206]	1660 nM	> 10 µM	-1%	39%	–	–	–	Emax [2, 7]: 16%; IC50 [2, 4]: > 10000 nM; IC50 [3, 5]: 1660 nM; Emax ([3]; human recombinant PDE2A): 39%
173.79 °C	Cc1nn(C)cc1C(=O)N1CCC[C@](C)(c2cc(C(F)F)nc3ncnn23)C1 (single isomer, unassigned) [Compound 207]	7940 nM	> 10 µM	2%	21%	–	–	–	Emax [2, 7]: -5%; IC50 [2, 4]: > 10000 nM; IC50 [3, 5]: 7940 nM; Emax ([3]; human recombinant PDE2A): 21%
145.19 °C	C[C@]1(c2cc(C(F)F)nc3ncnn23)CCCN(C(=O)c2ccc3occc3c2)C1 (single isomer, unassigned) [Compound 209]	724 nM	> 10 µM	25%	57%	–	–	–	Emax [2, 7]: 7%; IC50 [2, 4]: > 10000 nM; IC50 [3, 5]: 724 nM; Emax ([3]; human recombinant PDE2A): 57%
195.81 °C	Cc1ccc(C(=O)N2CCC[C@](C)(c3cc(C(F)F)nc4ncnn34)C2)c(C)n1 (single isomer, unassigned) [Compound 210]	617 nM	> 10 µM	5%	56%	–	–	–	Emax [2, 7]: 16%; IC50 [2, 4]: > 10000 nM; IC50 [3, 5]: 617 nM; Emax ([3]; human recombinant PDE2A): 56%
122.37 °C	C[C@H]1CCN(C(=O)c2ccc3occc3c2)C[C@@H]1c1cc(C(F)F)nc2ncnn12 [Compound 221]	–	–	–	–	–	–	–	–
–	O=C(c1ccc2cnccc2c1)N1[C@H]2CC[C@H](c3cc(C(F)F)nc4ncnn34)[C@@H]1CC2 [Compound 314]	5.75 nM	3.55 µM	73%	100%	5%	91%	933 nM	–
–	O=C(c1ccc2ccccc2c1)N1[C@H]2CC[C@H](c3cc(C(F)F)nc4ncnn34)[C@@H]1CC2 [Compound 319]	1.12 nM	1.02 µM	95%	100%	37%	99%	263 nM	–
–	Cc1nn(C)c2sc(C(=O)N3[C@H]4CC[C@H](c5cc(C(F)F)nc6ncnn56)[C@@H]3CC4)cc12 [Compound 335]	0.955 nM	7.24 µM	52%	102%	88%	98%	87.1 nM	ED50 (PDE2A; po, read-out: PDE Occupancy ED50): 0.985 mg/kg
–	Cc1cc(Cl)cc(C(=O)N2[C@H]3CC[C@H](c4cc(C(F)F)nc5ncnn45)[C@@H]2CC3)c1 [Compound 339]	6.61 nM	4.79 µM	69%	101%	-1%	95%	617 nM	–
–	Cc1cc(C(=O)N2[C@H]3CC[C@H](c4cc(C(F)F)nc5ncnn45)[C@@H]2CC3)cc(C)c1F [Compound 346]	5.25 nM	6.03 µM	68%	100%	19%	92%	724 nM	–
–	Cc1csc(C(=O)N2[C@H]3CC[C@H](c4cc(C(F)F)nc5ncnn45)[C@@H]2CC3)c1 [Compound 347]	–	–	63%	101%	11%	91%	–	IC50 [1]: 7.24 µM; IC50 ([2]; hPDE10A2 or rPDE10A2 pIC50, human clone by default (no (r) mark)): 1000 nM; IC50 ([3]; hPDE2A pIC50): 5.37 nM
–	O=C(c1cc(OC(F)F)cc(C2CC2)c1)N1[C@H]2CC[C@H](c3cc(C(F)F)nc4ncnn34)[C@@H]1CC2 [Compound 352]	7.59 nM	1.82 µM	89%	100%	16%	99%	479 nM	–
–	CN(C)c1ccc(C(=O)N2[C@H]3CC[C@H](c4cc(C(F)F)nc5ncnn45)[C@@H]2CC3)cc1 [Compound 362]	1.7 nM	0.871 µM	88%	99%	3%	93%	794 nM	–
–	COc1ccc(C(=O)N2[C@H]3CC[C@H](c4cc(C(F)F)nc5ncnn45)[C@@H]2CC3)cc1OC [Compound 364]	3.89 nM	3.16 µM	75%	101%	-5%	85%	1820 nM	–
–	Cc1cc(C(=O)N2[C@H]3CC[C@H](c4cc(C(F)F)nc5ncnn45)[C@@H]2CC3)cnc1C [Compound 366]	10.2 nM	> 10 µM	22%	99%	18%	64%	5750 nM	–
–	Cc1nc2ccc(C(=O)N3[C@H]4CC[C@H](c5cc(C(F)F)nc6ncnn56)[C@@H]3CC4)cc2s1 [Compound 368]	6.17 nM	6.46 µM	61%	101%	11%	99%	251 nM	–
–	Cc1ccc(C(=O)N2[C@H]3CC[C@H](c4cc(C(F)F)nc5ncnn45)[C@@H]2CC3)cc1Cl [Compound 369]	4.9 nM	3.72 µM	72%	100%	9%	93%	724 nM	–
–	Cc1cc([C@@H]2CN(C(=O)c3cc(C4CC4)ncc3Cl)CC[C@H]2C)n2ncnc2n1 [Compound 391]	2.4 nM	2.24 µM	81%	99%	–	97%	63.1 nM	receptor occupancy at 10 mg/kg (PDE2A; po): 3%
–	Cc1cc(C(=O)N2CC[C@@H](C)[C@H](c3cc(C(F)F)nc4ncnn34)C2)c(F)c(OC2CC2)n1 [Compound 392]	1.12 nM	0.447 µM	97%	99%	–	93%	263 nM	receptor occupancy at 10 mg/kg (PDE2A; po): 46%
–	COc1cc(C(=O)N2CC[C@@H](C)[C@H](c3cc(C(F)F)nc4ncnn34)C2)c(F)c(C)n1 [Compound 398]	4.9 nM	5.25 µM	67%	99%	–	95%	589 nM	receptor occupancy at 10 mg/kg (PDE2A; po): 29%

Structure (SMILES)	melting point	IC50 [3, 6]	IC50 ([1]; read-out: pIC50 (converted))	Emax [1]	Emax [3]	receptor occupancy at 10 mg/kg (PDE2A)	Emax [2, 8]	IC50 [2, 9]	further results
Cc1cc(C(=O)N2[C@H]3CC[C@H](c4cc(C(F)F)nc5ncnn45)[C@@H]2CC3)cc(C)n1 (racemic) [Compound 31]	190.16 °C	2.51 nM	–	–	–	–	–	–	hPDE3B Emax [1]: 8; hPDE10A2 Emax ([2]; human clone (h), default): 84; IC50 [2, 4]: 1120 nM; hPDE2A Emax [3]: 100; hPDE2A Emax ([3]; human recombinant PDE2A): 100; IC50 [3, 5]: 2.51 nM

Source: US10947242B2, “[1,2,4]triazolo[1,5and#8208;A]pyrimidine compounds as PDE2 inhibitors” (Janssen Pharmaceutica NV, priority 2016, dated 2021)
